{
  "source": "patent US20230090742A1",
  "about": "“AMINOPYRIMIDINYLAMINOBENZONITRILE DERIVATIVES AS NEK2 INHIBITORS” (Sumitomo Pharma Oncology, Inc., priority 2020, published 2023)",
  "key": {"[1]": {"system": "phosphorylation of PP1α and HEC1", "experiment": "Western blot analysis for phospho-PP1α and phospho-Hec1 in cell cycle synchronized MDA-MB-231 cells", "assay_type": "cell-based", "conditions": "double thymidine block and nocodazole, 10, 50, 100, and 500 nM", "procedure": "Reagents. MDA-MB-231 (Breast adenocarcinoma, triple negative breast cancer) and SW480 (colorectal adenocarcinoma, stem-like subtype) cells were purchased from ATCC and cultured as per manufacturer's instruction. Thymidine (Sigma, T9250) stock solution (100 mM) was prepared in PBS. 2′-Deoxycytidine (Sigma, D897) stock solution (240 mM) was prepared in distilled H2O. Nocodazole (Selleck Chemicals, S2775) stock solution (5 mg/mL) was made in dimethyl sulfoxide (DMSO). FxCycle Far Red stain (F10348) for cell cycle analysis was purchased from Thermo Fisher Scientific.\nAntibodies. […]\nCell Cycle Synchronization. […] Effectiveness of NEK2 inhibitors (Cmpd-16 and Cmpd-18) were assessed by adding small molecule inhibitors with nocodozole at 10, 50, 100, and 500 nM concentration at the time of nocodazole addition. […]\nImmunoblot Analysis. […] Whole cell lysates were sonicated and centrifuged at 16000×g for 10 minutes at 4° C., and protein concentration of the supernatant were determined using BCA Protein assay kit (ThermoScientific, 23225). Equal amounts of protein lysates (30 μg/lane and 10 μg/lane only for Histone H3 immunoblots) were fractionated on a NuPAGE Novex 4%-12% Bis-Tris Protein Gel (Thermo Fisher Scientific, NP0335BOX) and transferred onto a low fluorescence PVDF membrane (Millipore, IPFL07810). […] Li-Cor Image Studio software was used for western blot analysis and quantification"}, "[2]": {"target": "T1, NEK2 kinase (Accession No. NP-002488) (Homo sapiens, UniProt P51955)", "T1 construct": "purchased ThermoFisher Scientific (Invitrogen)", "T1 sequence (P51955 1-445)": "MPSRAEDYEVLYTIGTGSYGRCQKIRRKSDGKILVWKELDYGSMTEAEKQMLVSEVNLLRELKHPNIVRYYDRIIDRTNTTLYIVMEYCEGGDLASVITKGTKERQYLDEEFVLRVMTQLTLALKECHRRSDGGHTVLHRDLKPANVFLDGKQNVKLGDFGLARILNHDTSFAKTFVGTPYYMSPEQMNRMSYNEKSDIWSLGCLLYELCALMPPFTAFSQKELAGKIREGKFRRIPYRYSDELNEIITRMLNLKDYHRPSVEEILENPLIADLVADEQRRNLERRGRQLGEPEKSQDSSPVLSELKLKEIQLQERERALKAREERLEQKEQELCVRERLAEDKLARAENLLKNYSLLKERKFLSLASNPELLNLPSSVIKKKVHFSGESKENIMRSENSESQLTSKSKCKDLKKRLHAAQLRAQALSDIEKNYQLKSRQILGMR", "experiment": "HotSpot Kinase Assay, NEK2", "assay_type": "biochemical", "conditions": "HotSpot Kinase Assay; read-out: NEK2 IC50", "procedure": "In this example, the compounds described herein were tested for their inhibitory activity against NEK2 and/or Aurora A using the HotSpot™ Kinase Assay (Reaction Biology Corp.). The assay was performed according to the manufacturer's protocol, as detailed below. The NEK2 kinase (Accession No. NP-002488) and Aurora A kinase (Accession No. NP-940839) for use in these assays was sourced from ThermoFisher Scientific (Invitrogen).\nThe base Reaction Buffer used in this experiment contained the following: 20 mM Hepes (pH 7.5), 10 mM MgCl2, 1 mM EGTA, 0.02% Brij™-35, 0.02 mg/ml BSA, 0.1 mM Na3VO4, 2 mM DTT, and 1% DMSO. The required cofactors were added individually to each kinase reaction.\nTesting compounds were dissolved in 100% DMSO to a specific concentration. The serial dilution was conducted by Integra Viaflo Assist in DMSO.\nThe substrate was prepared in freshly prepared Reaction Buffer. The required cofactors were delivered to the substrate solution described above. NEK2 kinase or Aurora A kinase was delivered to the substrate solution and gently mixed. Next, the compounds in 100% DMSO were transferred to the kinase reaction mixture by Acoustic technology (Echo550; nanoliter range) and incubated for 20 min at room temperature. ^33P-ATP (Specific activity 10 μCi/μl) was delivered into the reaction mixture to initiate the reaction. The reaction was incubated for 2 hours at room temperature. Radioactivity was then detected by the filter-binding method. Kinase activity data were expressed as the percent remaining kinase activity in test samples compared to vehicle (dimethyl sulfoxide) reactions. IC50 values and curve fits were obtained using Prism (GraphPad Software)."}},
  "data": [
    {"smiles": "N#Cc1c(Nc2nc(Nc3ccc(N4CCNCC4)cc3)ncc2Cl)cccc1OCc1ccccc1F", "note": "[Compound 16, 2-((5-chloro-2-((4-(piperazin-1-yl)phenyl)amino)pyrimidin-4-yl)amino)-6-((2-fluorobenzyl)oxy)benzonitrile]", "values": [
      {"measurement": "phosphorylation of PP1α and HEC1 (HistoneH3 phosphorylation as marker of mitosis)", "setting": "[1]", "value": "more specifically inhibited phosphorylation of PP1α and HEC1 without interfering in cell cycle progression than Cmpd-18"},
      {"measurement": "IC50", "setting": "[2]", "value": "≤ 5", "unit": "nM"}
    ]}
  ]
}
